Assay results reported in the C3SDB collision cross section collection.

How the values were obtained:
[1] = instrument: TW, calibrated with phosphatidylcholines (ESI+) and phosphatidylethanolamines (ESI-)
[2] = instrument: DT, single field, calibrated with Agilent tune mix (Agilent)
[3] = instrument: DT, stepped-field

| Compound | collision cross section (N2) ([1]; [M+H]+) [Å²] | collision cross section (N2) ([1]; [M+Na]+) [Å²] | collision cross section (N2) ([1]; [M-H]-) [Å²] | also measured |
| --- | --- | --- | --- | --- |
| CCCCC/C=C\C/C=C\C/C=C\C/C=C\CCCCCC(=O)O[C@H](COC(=O)CCCCCC/C=C\C/C=C\C/C=C\CCCCC)COP(=O)(O)OCCN [PE(42:7)] | 291.7 |  |  |  |
| CCCCC/C=C\C/C=C\CCCCCCCCCCCC(=O)O[C@@H](CO)COC(=O)CCCCCCCCCCCCC [DG(18:1/18:1)] |  |  |  | collision cross section (N2) ([1]; [M+H-H2O]+): 263.5 Å² |
| CCCCCC/C=C\CCCCCCCCCCCC(=O)O[C@H](COC(=O)CCCCCCCCC/C=C\CCCCCC)COP(=O)([O-])OCC[N+](C)(C)C [PC(38:2)] | 293.7 |  |  | collision cross section (N2) ([2]; [M+H]+): 297 Å² |
| CCCCCCCCCCCCCCCC(=O)N[C@@H](CO)[C@H](O)CCCCCCCCCCCCCCC [Cer(d18:0/16:0)] | 255.1 |  |  |  |
| CCCCCCCCCCCCCCCCCC(=O)O[C@H](CO)COP(=O)(O)OCCN [LPE(18:0)] | 220.8 | 224.8 | 212.9 | collision cross section (N2) ([2]; [M+Na]+): 227.5 Å²; collision cross section (N2) ([2]; [M-H]-): 214.1 Å² |
| CCCCCCCCCCCCC=CC[C@@H](O)[C@H](CO)NC(=O)CCCCCCCCCCCCCCCCCCCCCCCCC [Cer(d18:1/26:0)] | 284.4 |  |  |  |
| CCCCC/C=C\C/C=C\C/C=C\C/C=C\CCCC(=O)O[C@H](COC(=O)CCCCCCCCCCCCCCCCC)COP(=O)(O)O[C@H]1C(O)C(O)C(O)[C@@H](OP(=O)(O)O)C1O (stereo partly drawn) [PIP(38:4)] |  |  |  | collision cross section (N2) ([1]; [M+H-H2O]+): 300.5 Å² |
| CCCCCCCC/C=C\CCCCCCCCCC(=O)O[C@H](COC(=O)CCCCCCCCCCCCC)COP(=O)(O)O [PA(34:1)] |  |  | 254.7 | collision cross section (N2) ([2]; [M+H]+): 271 Å²; collision cross section (N2) ([2]; [M+NH4]+): 271.2 Å²; collision cross section (N2) ([2]; [M+Na]+): 268.5 Å²; collision cross section (N2) ([2]; [M-H]-): 255.6 Å² |
| CCCCCCCCCCCCC=CC[C@@H](O)[C@H](CO)NC(=O)CCCCCCCCCCCCCCCCC [Cer(d18:1/18:0)] | 261.2 |  | 249.7 |  |
| CCCCCCCC/C=C\CCCCCC/C=C\OC[C@@H](O)COP(=O)([O-])OCC[NH3+] [LPE(p18:1)] | 217.2 | 216.5 | 208.9 |  |
| CCCCCCCCCCCCCCCCCCCCCCCC(=O)N[C@@H](CO)[C@H](O)CCCCCCCCCCCCCCC [Cer(d18:0/24:0)] | 279.6 |  |  |  |
| CCCCCCCCCCCCC=CC[C@@H](O)[C@H](CO)NC(=O)CCCCCCCCCCCCCCCCCCCCCCCCC [Cer(d18:0/26:1)] | 284.5 |  |  |  |
| CC/C=C\C/C=C\C/C=C\C/C=C\CCCCC(=O)O[C@H](CO/C=C\CCCCCCCCCCCCCCCC)COP(=O)(O)OCCN [PE(p36:4)] |  | 275.5 | 264.6 |  |
| CCCCCCCCCCCCCCCCCCCCCC(=O)N[C@@H](CO)[C@H](O)CCCCCCCCCCCCCCC [Cer(d18:0/22:0)] | 274.1 |  |  |  |
| CCCCCCCC/C=C\CCCCCCCC(=O)OC[C@H](COP(=O)(O)O[C@H]1C(O)C(O)C(O)[C@@H](OP(=O)(O)O)C1O)OC(=O)CCCCCCCCCCCCCCCCC (stereo partly drawn) [PIP(36:1)] |  |  |  | collision cross section (N2) ([1]; [M+H-H2O]+): 296.4 Å² |
| CCCCC/C=C\C/C=C\CCCCCCCC(=O)O[C@H](COC(=O)CCCCCCC/C=C\CCCCCCCC)COP(=O)(O)O[C@H]1C(O)C(O)C(O)[C@@H](OP(=O)(O)O)C1O (stereo partly drawn) [PIP(36:3)] |  |  |  | collision cross section (N2) ([1]; [M+H-H2O]+): 292.7 Å² |
| CCCCCCCCCCCCC=CC[C@@H](O)[C@H](CO)NC(=O)CCCCCCCCCCCCCCCCC [Cer(d18:0/18:1)] | 261.3 |  |  |  |
| CCCCC/C=C\C/C=C\C/C=C\CCCCC(=O)OC[C@H](COP(=O)(O)OC[C@H](N)C(=O)O)OC(=O)CCCCCCCCC/C=C\CCCCCCCCCC [PS(40:04)] |  |  |  | collision cross section (N2) ([3]; [M+2Na-H]+): 298.27 Å²; collision cross section (N2) ([3]; [M+H]+): 291.15 Å²; collision cross section (N2) ([3]; [M+K]+): 295.44 Å²; collision cross section (N2) ([3]; [M+Na]+): 295.22 Å²; collision cross section (N2) ([3]; [M-H]-): 291.3 Å² |
| CCCCC/C=C\C/C=C\CCCCCCCC(=O)O[C@H](COCCCCCCCCCCCCCCCCCC)COP(=O)(O)OCCN [PE(o36:02)] |  |  |  | collision cross section (N2) ([3]; [M+2Na-H]+): 280.9 Å²; collision cross section (N2) ([3]; [M+H]+): 274.98 Å²; collision cross section (N2) ([3]; [M+Na]+): 280.37 Å² |
| CC/C=C\C/C=C\C/C=C\C/C=C\CCCCC(=O)O[C@H](COC(=O)CCCCCCC/C=C\CCCCCCCC)COP(=O)(O)O [PA(36:05)] |  |  |  | collision cross section (N2) ([3]; [M+2Na-H]+): 269.3 Å² |
| CC/C=C/C=C/C=C/C=C/CCCCCCCC(=O)O[C@H](COC(=O)CCCCCCCCCCCCCCCCC)COP(=O)([O-])OCC[N+](C)(C)C [PC(36:04)] |  |  |  | collision cross section (N2) ([3]; [M+Cl]-): 293.08 Å²; collision cross section (N2) ([3]; [M+HCOO]-): 292.86 Å²; collision cross section (N2) ([3]; [M+Na]+): 285.05 Å² |
| CCCCCCCCCCCCC=CC[C@@H](O)[C@H](CO[C@@H]1O[C@H](CO)[C@@H](O)C(O)C1O)NC(=O)CC=CCC=CCCCCCCCCCCCCCCCCC (stereo partly drawn) [GlcCer(42:03)] |  |  |  | collision cross section (N2) ([3]; [M+Na]+): 297.28 Å² |
| CC/C=C\C/C=C\C/C=C\C/C=C\C/C=C\C/C=C\CCC(=O)O[C@H](COC(=O)CCCCCCCCCCCCCCC)COP(=O)(O)O [PA(38:6)] |  |  | 260.9 |  |
| CCCCCCCCCCCCCC/C=C\OC[C@@H](O)COP(=O)([O-])OCC[NH3+] [LPE(p16:0)] | 215.6 | 214.7 | 204.7 |  |
| CCCCCCCCCCCCC=CC[C@@H](O)[C@H](CO[C@@H]1O[C@H](CO)[C@@H](O)C(O)C1O)NC(=O)CC=CCC=CCCCCCCCCCCCCCCCCCC (stereo partly drawn) [GlcCer(43:03)] |  |  |  | collision cross section (N2) ([3]; [M+Na]+): 300.75 Å² |
| CCCCCCCCCCCCC=CC[C@@H](O)[C@H](CO)NC(=O)CCCCCCCCCCCCCCC [Cer(d18:1/16:0)] |  |  | 243.7 |  |
| CCCCCCCC/C=C\CCCCCCCC(=O)O[C@H](COC(=O)CCCCCCCCCCCCCCCCC)COP(=O)(O)OCCN [PE(36:01)] |  |  |  | collision cross section (N2) ([3]; [M+2Na-H]+): 283.74 Å²; collision cross section (N2) ([3]; [M+H]+): 277.02 Å²; collision cross section (N2) ([3]; [M+Na]+): 282.21 Å²; collision cross section (N2) ([3]; [M-H]-): 273.62 Å² |

Second part, led by results:

| collision cross section (N2) ([1]; [M+H]+) [Å²] | collision cross section (N2) ([1]; [M+Na]+) [Å²] | collision cross section (N2) ([1]; [M-H]-) [Å²] | Compound | also measured |
| --- | --- | --- | --- | --- |
|  | 292.7 | 283 | CCCCC/C=C\C/C=C\C/C=C\C/C=C\CCCCCC(=O)OC[C@H](COP(=O)(O)OC[C@@H](O)CO)OC(=O)CCCCCCC/C=C\CCCCCCCC [PG(40:5)] | collision cross section (N2) ([2]; [M+NH4]+): 298.9 Å²; collision cross section (N2) ([2]; [M+Na]+): 295.2 Å²; collision cross section (N2) ([2]; [M-H]-): 283.4 Å² |
| 283.5 | 286.8 | 274.4 | CC/C=C\C/C=C\C/C=C\C/C=C\C/C=C\C/C=C\CCC(=O)O[C@H](CO/C=C\CCCCCCCCCCCCCCCC)COP(=O)(O)OCCN [PE(p40:6)] |  |
|  |  | 282.4 | CCCCC/C=C\C/C=C\CCCCCCCCCCCC(=O)O[C@H](COC(=O)CCCCCCCCCCC)COP(=O)(O)O[C@H]1C(O)C(O)C(O)[C@@H](O)C1O (stereo partly drawn) [PI(34:2)] | collision cross section (N2) ([2]; [M+H]+): 291.6 Å²; collision cross section (N2) ([2]; [M+NH4]+): 292.9 Å²; collision cross section (N2) ([2]; [M-H]-): 282.4 Å² |
|  | 298.6 |  | CCCCCCCCCCCCCCCCCCC(=O)OC[C@H](COP(=O)(O)O[C@H]1C(O)C(O)C(O)[C@@H](O)C1O)OC(=O)CCCCCCCCCCCCCCCC (stereo partly drawn) [PI(36:0)] |  |
|  | 277.8 |  | CCCCC/C=C\C/C=C\C/C=C\C/C=C\CCCC(=O)OC[C@H](COP(=O)(O)OC[C@@H](O)CO)OC(=O)CCCCCCC/C=C\CCCCCC [PG(36:5)] |  |
| 283 | 281 |  | CC/C=C\C/C=C\C/C=C\C/C=C\C/C=C\C/C=C\CCC(=O)O[C@H](CO/C=C\CCCCCC/C=C\CCCCCCCC)COP(=O)(O)OCCN [PE(p40:7)] |  |
| 283.2 |  |  | CCCCCCCCCCCCC=CC[C@@H](O)[C@H](COP(=O)([O-])OCC[N+](C)(C)C)NC(=O)CC=CCCCCCCCCCCCCCC [SM(d18:1/18:1)] |  |
|  | 298.8 |  | CCCCC/C=C\C/C=C\C/C=C\C/C=C\CCCC(=O)O[C@H](COC(=O)CCCCCC/C=C\C/C=C\C/C=C\CCCCC)COP(=O)(O)O[C@H]1C(O)C(O)C(O)[C@@H](O)C1O (stereo partly drawn) [PI(40:7)] |  |
| 297.1 |  |  | CCCCCCCCCCCCC=CC[C@@H](O)[C@H](COP(=O)([O-])OCC[N+](C)(C)C)NC(=O)CCCCCCCCCCCCCCCCCCCCC [SM(d18:1/22:0)] |  |
| 284 |  | 272.7 | CCCCC/C=C\C/C=C\CCCCCCCCCCCC(=O)O[C@H](CO/C=C\CCCCCCCCCCCCCC)COP(=O)(O)OCCN [PE(p38:2)] |  |
|  | 296.8 |  | CC/C=C\C/C=C\C/C=C\C/C=C\CCCCC(=O)OC[C@H](COP(=O)(O)O[C@H]1C(O)C(O)C(O)[C@@H](O)C1O)OC(=O)CCCCC/C=C\C/C=C\C/C=C\C/C=C\CCCCC (stereo partly drawn) [PI(40:8)] |  |
| 290 | 291.1 |  | CCCCC/C=C\C/C=C\CCCCCCCCCC(=O)O[C@H](CO/C=C\CCCCCCCCCCCCCCCCCC)COP(=O)(O)OCCN [PE(p40:2)] |  |
|  |  | 283.7 | CCCCC/C=C\C/C=C\C/C=C\CCCCCCC(=O)OC[C@H](COP(=O)(O)OC[C@@H](O)CO)OC(=O)CCCCCCCCC/C=C\CCCCCCCC [PG(40:4)] |  |
